Test results published in patent US20150004134A1, “TREATMENT OF CANCER WITH HETEROCYCLIC INHIBITORS OF GLUTAMINASE” (Calithera Biosciences, Inc., priority 2012, published 2015).
Like-named read-outs stand apart in the source and are kept apart here.

Legend:
P493-6 (myc "on") cells = experiment: Cell Proliferation Assay; assay type: cell-based; settings: P493-6, 72 h
Procedure, shortened: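 Read-out: either Cell Titer Glo or Guava Viacount flow analysis after 72 h compound treatment of myc-on P493-6 cells (10,000/well, RPMI with 10% FBS) at 37 °C. DMSO held at 0.5% final.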

[1] = biological target: T1, recombinant form of Glutaminase 1 (GAC) (Homo sapiens, UniProt O94925); experiment: Recombinant Enzyme Assay - Time Dependence (60 min preincubation); assay type: biochemical
T1 sequence (O94925 137-598 isoform O94925-3 limits assumed): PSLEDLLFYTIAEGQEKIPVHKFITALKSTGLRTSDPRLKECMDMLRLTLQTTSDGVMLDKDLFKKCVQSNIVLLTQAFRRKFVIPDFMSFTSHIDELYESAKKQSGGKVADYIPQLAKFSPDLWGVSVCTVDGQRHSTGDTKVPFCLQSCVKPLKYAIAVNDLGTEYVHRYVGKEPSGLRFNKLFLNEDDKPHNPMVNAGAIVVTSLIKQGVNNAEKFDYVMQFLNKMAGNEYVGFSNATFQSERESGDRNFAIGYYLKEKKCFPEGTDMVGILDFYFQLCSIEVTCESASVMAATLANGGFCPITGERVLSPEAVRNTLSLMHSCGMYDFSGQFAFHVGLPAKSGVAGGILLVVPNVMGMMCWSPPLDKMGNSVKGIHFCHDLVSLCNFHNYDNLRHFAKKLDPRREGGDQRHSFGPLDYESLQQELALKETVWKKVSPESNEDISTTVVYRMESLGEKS
Method: The enzyme/compound mix was sealed with sealing foil (USA Scientific) and allowed to incubate, with mild agitation, for 60 minutes at 20° C. Enzymatic reaction was started with the addition of 50 μL of substrate solution (50 mM Tris-HCl pH 8.0, 0.2 mM EDTA, 150 mM K2HPO4, 0.1 mg/ml BSA, 1 mM DTT, 20 mM L-glutamine, 2 mM NAD^+, and 10 ppm antifoam) and read in a Molecular Devices M5 plate reader at 20° C. The plate reader was configured to read absorbance (=340 nm) in kinetic mode for 15 minutes. Data was recorded as milli-absorbance units per minute and slopes were compared to a control compound and a DMSO-only control on the same plate. Compounds with slopes less than the DMSO control were considered inhibitors and plate variability was assessed using the control compound.

[2] = read-out: Cell prolif P493 72 h IC50, P493-6 cells, 72 h
[3] = read-out: GAC Delta N2 IC50 60 min preinc
[4] = read-out: Cell prolif P493 72 h IC50, P493 cells, 72 h

IC50 [1] [nM] | SMILES | IC50 (P493-6 (myc "on") cells; [2]) [nM] | IC50 [1, 3] [nM] | IC50 (P493-6 (myc "on") cells; [4]) [nM]
 | CC(C(=O)Nc1nnc(CCCCc2ccc(NC(=O)Cc3ccccc3)nn2)s1)c1cccc(C(=O)c2ccccc2)c1 (stereo not drawn) [Compound 587] | 57 | 7 | 
 | CC(=O)NCc1cccc(CC(=O)Nc2nnc(CCCCc3ccc(NC(=O)Cc4ccccc4)nn3)s2)c1 [Compound 431] | 26 | 7 | 
 | CCNC(=O)NCc1cccc(CC(=O)Nc2nnc(CCCCc3ccc(NC(=O)Cc4ccccc4)nn3)s2)c1 [Compound 453] | 15 | 3 | 
 | CN(C)CC(=O)Nc1ccc(CC(=O)Nc2nnc(CCCCc3ccc(NC(=O)Cc4ccccc4)nn3)s2)cc1 [Compound 430] | 27 | 9 | 
 | NCc1ccccc1CC(=O)Nc1nnc(CCCCc2ccc(NC(=O)Cc3ccccc3)nn2)s1 [Compound 466] | 1300 | 51 | 
 | CC(C)C(=O)NC(C)c1cccc(CC(=O)Nc2ccc(CCCCc3nnc(NC(=O)Cc4ccccc4)s3)nn2)c1 (stereo not drawn) [Compound 620] | 11 | 5 | 
 | CC(N)c1cc(CC(=O)Nc2ccc(CCCCc3nnc(NC(=O)Cc4ccccc4)s3)nn2)ccc1F (stereo not drawn) [Compound 656] | 400 | 18 | 
 | CCN(C)C(=O)Cc1cccc(CC(=O)Nc2nnc(CCCCc3ccc(NC(=O)Cc4ccccc4)nn3)s2)c1 [Compound 486] | 24 | 4 | 
 | O=C(Cc1ccccc1)Nc1ccc(CCCCc2nnc(NC(=O)Cc3cccc(CC(=O)N4CCC4)c3)s2)nn1 [Compound 487] | 42 | 5 | 
 | COc1ccc(CC(=O)Nc2nnc(CCCCc3ccc(NC(=O)Cc4ccccc4)nn3)s2)cc1F [Compound 544] | 44 | 6 | 
 | CCNC(=O)Nc1nnc(CCCCc2ccc(NC(=O)Cc3ccccc3)nn2)s1 [Compound 418] | 320 | 140 | 
7 | CC(C)(O)Cc1cccc(CC(=O)Nc2nnc(CCCCc3ccc(NC(=O)Cc4ccccc4)nn3)s2)c1 [Compound 513] | 22 |  | 
 | O=C(Cc1ccccc1)Nc1ccc(CCCCc2nnc(NC(=O)Cc3cccc(OCCCO)c3)s2)nn1 [Compound 519] | 59 | 9 | 
 | CC(C)(C)OC(=O)N1Cc2cccc(CC(=O)Nc3nnc(CCCCc4ccc(NC(=O)Cc5ccccc5)nn4)s3)c2C1 [Compound 608] | 37 | 7 | 
 | CCCNC(=O)Cc1cccc(CC(=O)Nc2nnc(CCCCc3ccc(NC(=O)Cc4ccccc4)nn3)s2)c1 [Compound 497] | 32 | 4 | 
 | CC(C)(C)OC(=O)NCc1cccc(CC(=O)Nc2nnc(CCCCc3ccc(N)nn3)s2)c1 [Compound 412] | 110 | 28 | 
 | CC(O)c1cccc(CC(=O)Nc2ccc(CCCCc3nnc(NC(=O)C(C)c4ccccc4)s3)nn2)c1 (stereo not drawn) [Compound 595] | 59 | 7 | 
 | O=C(Cc1ccccc1)Nc1ccc(CCCCc2nnc(NC(=O)Cc3cccc(C(F)(F)F)c3)s2)nn1 [Compound 546] | 27 | 5 | 
 | O=C(Cc1cccc(OC(F)(F)F)c1)Nc1ccc(CCCCc2nnc(NC(=O)Cc3ccccc3F)s2)nn1 [Compound 673] |  | 6 | 
 | O=C(Cc1ccccc1)Nc1ccc(CCCCc2nnc(NC(=O)Cc3cccc(CC(=O)N4CCCC4)c3)s2)nn1 [Compound 473] | 6 | 2 | 
 | CCCN(C)C(=O)Cc1cccc(CC(=O)Nc2nnc(CCCCc3ccc(NC(=O)Cc4ccccc4)nn3)s2)c1 [Compound 484] | 11 | 3 | 
 | CC(C)CNC(=O)Cc1cccc(CC(=O)Nc2nnc(CCCCc3ccc(NC(=O)Cc4ccccc4)nn3)s2)c1 [Compound 470] | 9 | 3 | 
 | CC1(C)OCC(C)(C(=O)NCc2cccc(CC(=O)Nc3nnc(CCCCc4ccc(NC(=O)Cc5ccccc5)nn4)s3)c2)CO1 [Compound 580] | 13 | 5 | 
 | CC(C(=O)NCc1cccc(CC(=O)Nc2nnc(CCCCc3ccc(NC(=O)Cc4ccccc4)nn3)s2)c1)c1ccc(O)cc1 (stereo not drawn) [Compound 576] | 13 | 3 | 
 | CCNC(=O)OC(C)c1cccc(CC(=O)Nc2ccc(CCCCc3nnc(NC(=O)C(C)c4ccccc4)s3)nn2)c1 (stereo not drawn) [Compound 594] | 50 | 7 | 
 | O=C(Cc1ccccc1)Nc1ccc(CCCCc2nnc(NC(=O)Cc3cccc(OCC(F)(F)F)c3)s2)nn1 [Compound 665] | 100 | 5 | 

IC50 [1] [nM] | SMILES | IC50 (P493-6 (myc "on") cells; [2]) [nM] | IC50 [1, 3] [nM] | IC50 (P493-6 (myc "on") cells; [4]) [nM]
 | CCCCN(C)C(=O)Cc1cccc(CC(=O)Nc2nnc(CCCCc3ccc(NC(=O)Cc4ccccc4)nn3)s2)c1 [Compound 483] | 9 | 4 | 
 | O=C(Cc1cccc(OC(F)(F)F)c1)Nc1ccc(CCCCc2nnc(NC(=O)Cc3cccc(OC(F)F)c3)s2)nn1 [Compound 668] |  | 9 | 
 | CC(C)(C)OC(=O)Nc1ccc(CC(=O)Nc2nnc(CCCCc3ccc(NC(=O)Cc4ccccc4)nn3)s2)cc1 [Compound 400] | 53 | 15 | 
 | CN1CCN(C(=O)c2cccc(CC(=O)Nc3nnc(CCCCc4ccc(NC(=O)Cc5ccccc5)nn4)s3)c2)CC1 [Compound 490] | 250 | 11 | 
 | O=C(Cc1ccccc1)Nc1ccc(CCCCc2nnc(NC(=O)Cc3ccc(F)c(O)c3)s2)nn1 [Compound 538] | 30 | 4 | 
4 | CC(NC(=O)CC(F)(F)F)c1cccc(CC(=O)Nc2ccc(CCCCc3nnc(NC(=O)Cc4ccccc4)s3)nn2)c1 (stereo not drawn) [Compound 624] | 9 |  | 
 | CC(=O)Nc1ccc(CCCCc2nnc(NC(=O)Cc3cccc(CNC(=O)c4ccccc4)c3)s2)nn1 [Compound 460] | 31 | 5 | 
 | CCOc1cccc(CC(=O)Nc2nnc(CCCCc3ccc(NC(=O)Cc4ccccc4)nn3)s2)c1 [Compound 488] | 1900 | 320 | 
 | O=C(Cc1ccc(OC(F)(F)F)cc1)Nc1ccc(CCCCc2nnc(NC(=O)Cc3ccccc3)s2)nn1 [Compound 615] |  | 9 | 
 | CC(N)c1cccc(CC(=O)Nc2nnc(CCCCc3ccc(NC(=O)Cc4ccccc4)nn3)s2)c1 (stereo not drawn) [Compound 559] | 66 | 12 | 
 | CC(C)(C)OC(=O)NC(C)(C)c1cccc(CC(=O)Nc2nnc(CCCCc3ccc(NC(=O)Cc4ccccc4)nn3)s2)c1 [Compound 630] | 9 | 4 | 
 | CC(O)c1cccc(CC(=O)Nc2ccc(CCCCc3nnc(NC(=O)Cc4cccc(OC(F)(F)F)c4)s3)nn2)c1 (stereo not drawn) [Compound 597] | 17 | 5 | 
 | O=C(Cc1cccc(OC(F)(F)F)c1)Nc1ccc(CCCCc2nnc(NC(=O)Cc3cc(F)cc(F)c3)s2)nn1 [Compound 662] |  | 7 | 
 | O=C(Cc1cccc(OC(F)(F)F)c1)Nc1ccc(CCCCc2nnc(NC(=O)Cc3cc(F)ccc3F)s2)nn1 [Compound 659] |  | 10 | 
 | O=C(Cc1cccc(OC(F)(F)F)c1)Nc1ccc(CCCCc2nnc(NC(=O)Cc3ccncc3)s2)nn1 [Compound 672] |  | 10 | 
 | CC(C)(C)OC(=O)NCc1cccc(CC(=O)Nc2nnc(CCCCc3ccc(NC(=O)Cc4cccc(OC(F)(F)F)c4)nn3)s2)c1 [Compound 586] |  | 13 | 
 | O=C(Cc1cccc(OC(F)(F)F)c1)Nc1ccc(CCCCc2nnc(NC(=O)Cc3cccc(OCC(F)(F)F)c3)s2)nn1 [Compound 669] |  | 21 | 
 | CC(C(=O)Nc1nnc(CCCCc2ccc(NC(=O)Cc3cccc(OC(F)(F)F)c3)nn2)s1)c1ccccc1 (stereo not drawn) [Compound 636] |  | 8 | 
 | COc1cccc(CC(=O)Nc2nnc(CCCCc3ccc(NC(=O)Cc4cccc(OC(F)(F)F)c4)nn3)s2)c1 [Compound 658] |  | 5 | 
 | CSc1cccc(CC(=O)Nc2nnc(CCCCc3ccc(NC(=O)Cc4cccc(OC(F)(F)F)c4)nn3)s2)c1 [Compound 674] |  | 8 | 
 | O=C(Cc1ccccc1OC(F)(F)F)Nc1ccc(CCCCc2nnc(NC(=O)Cc3ccccc3)s2)nn1 [Compound 614] |  | 8 | 
 | O=C(Cc1cccc(Cn2cccn2)c1)Nc1nnc(CCCCc2nnc(NC(=O)Cc3cccc(Cn4cccn4)c3)s2)s1 [Compound 362] |  |  | 54
 | COc1cccc(CC(=O)Nc2nnc(CCSCCc3nnc(NC(=O)Cc4cccc(OC)c4OC)s3)s2)c1OC [Compound 259] |  |  | 570
 | O=C(CN1C(=O)OC[C@H]1c1ccccc1)Nc1nnc(CCSCCc2nnc(NC(=O)CN3C(=O)OC[C@H]3c3ccccc3)s2)s1 [Compound 243] |  |  | 33000
 | NCCC(C(=O)Nc1nnc(CCSCCc2nnc(NC(=O)C(CN)c3ccccc3)s2)s1)c1ccccc1 (stereo not drawn) [Compound 214] |  |  | 1200

SMILES | IC50 [1] [nM] | IC50 (P493-6 (myc "on") cells; [2]) [nM] | IC50 [1, 3] [nM] | IC50 (P493-6 (myc "on") cells; [4]) [nM]
O=C(Cc1cccc(Br)c1)Nc1nnc(CCCCc2nnc(NC(=O)Cc3cccc(Br)c3)s2)s1 [Compound 284] | 50 |  |  | 
